Data as given in US9725415B2, “Process for the preparation of 5-fluoro-1H-pyrazoles” (BAYER CROPSCIENCE AKTIENGESELLSCHAFT, priority 2013, dated 2017).

Assay: log P determination by HPLC on a phase inversion column (C18), EEC Directive 79/831 Annex V.A8
Assay type: physicochemical
Details: HPLC-MS method a): C18 column, gradient 10% to 95% acetonitrile (0.1% formic acid) / water (0.09% formic acid), oven 55° C.
Work on `Cn1nc(C(F)(F)C(F)(F)F)c(C(F)(F)F)c1-n1cc(-c2ccc(Cl)c(C(=O)NC3(C#N)CC3)c2)cn1` [Compound (IIIa), 2-Chloro-N-1-cyano-cyclopropyl-5-[2′-methyl-5′-(pentafluoroethyl)-4′-(trifluoromethyl)-2′H-1,3′-bipyrazol-4-yl]benzamide] yielded a chromatographic logP of 3.72. `Cn1nc(C(F)(F)C(F)(F)F)c(C(F)(F)F)c1C(=O)Nc1ccc(Cl)c(C(=O)NCc2ccccc2)c1` [Compound (IIa), N-[4-chloro-3-(benzylcarbamoyl)phenyl]-1-methyl-3-(pentafluoroethyl)-4-(trifluoromethyl)-1H-pyrazole-5-carboxamide] gave a chromatographic logP of 3.9. With `Cn1nc(C(F)(F)C(F)(F)F)c(C(F)(F)F)c1-n1cc(Br)cn1` [Intermediate (12), 4-bromo-2′-methyl-5′-(pentafluoroethyl)-4′-(trifluoromethyl)-2′H-1,3′-bipyrazole] the chromatographic logP was 4.14.
